{
  "source": "paper PMC3770298",
  "about": "(ACS medicinal chemistry letters, 2013)",
  "key": {"RORγ": {"molecular_target": "T1, RORγ (Mus musculus, UniProt P51450)", "T1 sequence (P51450 1-516)": "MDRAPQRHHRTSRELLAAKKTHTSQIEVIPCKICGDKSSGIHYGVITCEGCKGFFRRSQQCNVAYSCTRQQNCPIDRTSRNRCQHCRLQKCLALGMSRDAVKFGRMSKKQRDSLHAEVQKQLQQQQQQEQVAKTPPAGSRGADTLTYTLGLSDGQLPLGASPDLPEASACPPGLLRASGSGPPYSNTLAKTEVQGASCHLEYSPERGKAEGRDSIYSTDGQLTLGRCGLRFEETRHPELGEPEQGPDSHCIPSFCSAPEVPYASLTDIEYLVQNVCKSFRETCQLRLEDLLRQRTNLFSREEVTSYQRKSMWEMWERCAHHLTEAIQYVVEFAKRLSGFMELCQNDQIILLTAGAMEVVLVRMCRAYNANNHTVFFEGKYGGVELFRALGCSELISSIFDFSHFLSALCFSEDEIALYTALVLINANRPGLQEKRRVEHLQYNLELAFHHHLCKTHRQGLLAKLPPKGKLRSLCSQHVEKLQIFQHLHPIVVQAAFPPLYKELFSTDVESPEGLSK", "experiment": "cell-based RORγ gene reporter assay", "details": "for IC50 (μM) (RORγ): Table 1, region A, mean of four replicates from two independent experiments"}, "[1]": {"molecular_target": "T2, RORγ ligand binding domain (LBD) (Homo sapiens, UniProt P51449)", "T2 sequence (P51449 269-508 limits assumed)": "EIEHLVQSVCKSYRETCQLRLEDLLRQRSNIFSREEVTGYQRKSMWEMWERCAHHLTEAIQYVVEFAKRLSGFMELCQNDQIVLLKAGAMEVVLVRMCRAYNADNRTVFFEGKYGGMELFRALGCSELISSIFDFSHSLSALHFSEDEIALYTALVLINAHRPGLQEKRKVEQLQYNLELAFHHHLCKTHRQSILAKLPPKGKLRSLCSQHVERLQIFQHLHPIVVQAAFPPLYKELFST", "experiment": "fluoroprobe", "details": "competition assay"}, "VP16": {"system": "VP16", "format": "cell-based", "details": "up to 96 μM"}, "DHR3": {"molecular_target": "T3, DHR3 (Drosophila melanogaster, UniProt P31396)", "T3 sequence (P31396 1-487)": "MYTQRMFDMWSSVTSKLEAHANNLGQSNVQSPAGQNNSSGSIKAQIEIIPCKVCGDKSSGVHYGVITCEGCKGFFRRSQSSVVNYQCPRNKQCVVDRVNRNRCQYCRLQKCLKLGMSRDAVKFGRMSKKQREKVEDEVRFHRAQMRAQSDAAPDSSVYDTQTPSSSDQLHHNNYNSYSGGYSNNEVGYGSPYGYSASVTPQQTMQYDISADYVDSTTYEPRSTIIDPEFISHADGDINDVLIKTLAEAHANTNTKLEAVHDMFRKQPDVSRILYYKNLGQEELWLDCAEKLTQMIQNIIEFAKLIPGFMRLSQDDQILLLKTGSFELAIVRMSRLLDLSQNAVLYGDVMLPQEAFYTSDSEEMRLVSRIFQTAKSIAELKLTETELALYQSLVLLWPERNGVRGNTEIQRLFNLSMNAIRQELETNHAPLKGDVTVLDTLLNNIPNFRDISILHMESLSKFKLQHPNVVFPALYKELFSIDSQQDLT", "experiment": "DHR3 gene reporter assay", "format": "cell-based", "details": "up to 96 μM"}, "Th1 cell differentiation": {"system": "Th1 cell differentiation", "experiment": "Th1 cell differentiation", "format": "cell-based, mouse", "details": "20 μM; data not shown"}, "[2]": {"system": "mouse TH17 cell differentiation", "experiment": "mouse TH17 cell differentiation", "format": "cell-based", "details": "read-out: inhibition of mouse TH17 cell differentiation"}, "RORα": {"molecular_target": "T4, RORα (Mus musculus, UniProt P51448)", "T4 sequence (P51448 1-523)": "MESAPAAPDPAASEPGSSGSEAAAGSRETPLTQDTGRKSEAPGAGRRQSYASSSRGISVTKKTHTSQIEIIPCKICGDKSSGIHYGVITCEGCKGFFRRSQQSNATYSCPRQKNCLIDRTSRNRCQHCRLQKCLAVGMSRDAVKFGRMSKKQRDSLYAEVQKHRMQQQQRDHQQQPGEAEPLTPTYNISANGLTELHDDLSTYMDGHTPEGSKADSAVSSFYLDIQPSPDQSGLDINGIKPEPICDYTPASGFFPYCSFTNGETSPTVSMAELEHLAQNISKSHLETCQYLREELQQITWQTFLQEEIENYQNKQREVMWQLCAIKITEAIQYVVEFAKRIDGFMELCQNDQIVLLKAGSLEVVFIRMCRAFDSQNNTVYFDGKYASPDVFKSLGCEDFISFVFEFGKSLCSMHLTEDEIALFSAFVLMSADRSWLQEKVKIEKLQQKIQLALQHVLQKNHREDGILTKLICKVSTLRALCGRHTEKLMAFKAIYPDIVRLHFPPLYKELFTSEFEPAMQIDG", "experiment": "RORα gene reporter assay", "format": "cell-based", "details": "up to 96 μM"}},
  "data": [
    {"smiles": "COc1cc(O)c(C(CC(=O)N2C[C@@H](C)N[C@@H](C)C2)c2ccc3c(c2)OCO3)c(OC)c1", "note": "(stereo partly drawn) [Compound 4m]", "values": [
      {"measurement": "IC50 (μM) (RORγ)", "setting": "RORγ", "value": "inactive"}
    ]},
    {"smiles": "COc1cc(O)c(C(CC(=O)N2CCOCC2)c2ccc3c(c2)OCO3)c(OC)c1", "note": "(stereo not drawn) [Compound 4k]", "values": [
      {"measurement": "IC50 (μM) (RORγ)", "setting": "RORγ", "value": "inactive"},
      {"measurement": "displacement of hydroxycholesterol from RORγ LBD", "setting": "[1]", "value": "failed to displace"}
    ]},
    {"smiles": "C[C@H]1O[C@@H](O[C@H]2[C@@H](O)C[C@H](O[C@H]3[C@@H](O)C[C@H](O[C@H]4CC[C@@]5(C)[C@H](CC[C@@H]6[C@@H]5C[C@@H](O)[C@]5(C)[C@@H](C7=CC(=O)OC7)CC[C@]65O)C4)O[C@@H]3C)O[C@@H]2C)C[C@H](O)[C@@H]1O", "note": "[Digoxin, reference compound]", "values": [
      {"measurement": "result in qHTS for RORγ antagonists", "setting": "RORγ; qHTS of 310,000 compounds with VP16 counterscreen", "value": "selective antagonists"}
    ]},
    {"smiles": "COc1cc(O)c(C(CC(=O)N2CCCC(C)C2)c2ccc3c(c2)OCO3)c(OC)c1", "note": "(stereo not drawn) [Compound 4a]", "values": [
      {"measurement": "activity in the VP16 assay", "setting": "VP16", "value": "no activity"},
      {"measurement": "activity in the DHR3 assay", "setting": "DHR3", "value": "no activity"},
      {"measurement": "effect on Th1 cell differentiation", "setting": "Th1 cell differentiation", "value": "no effect"},
      {"measurement": "inhibition at 20 µM", "setting": "[2]", "value": 84, "unit": "%"},
      {"measurement": "activity in the RORα assay", "setting": "RORα", "value": "no activity"}
    ]}
  ]
}
